# Reference: patent US8022206B2 (OSI Pharmaceuticals, LLC, priority 2008, dated 2011)
# pIC50: −log10 of the molar value.
# Assays:
# RON (human) = RON (human) (Homo sapiens, UniProt Q04912); experiment: RON (human) AlphaScreen kinase assay, Km of ATP; type: biochemical; settings: AlphaScreen, Km of ATP; read-out: RON biochemical IC50
# Experimental: (§1) Someone skilled in the art will appreciate that a variety of assay formats may be used to determine the activity of the compounds of this invention. For example, AlphaScreen (Amplified Luminescent Proximity Homogeneous Assay) technology was used with the kinases described below. Assay ATP concentrations for individual kinases are included in the text.
# Desired compound is added in a final concentration of 1% DMSO with control being vehicle of DMSO alone. […] Enzyme is added to initiate the reaction and incubated for 30 min at RT. In subdued light, appropriate amount of PT66 donor and acceptor beads (diluted 1:260 from manufacturer's provision in a 25 mM Tris HCl (pH=7.5), 200 mM NaCl, 100 mM EDTA, 0.3% BSA buffer) are added to the wells. The plates, incubated for 1 h, are read on an AlphaQuest plate reader.
# MET (human) = MET (human) (Homo sapiens, UniProt P08581); experiment: MET (human) AlphaScreen kinase assay, Km of ATP; type: biochemical; settings: AlphaScreen, Km of ATP; read-out: Met biochemical IC50
# Experimental: as §1
# Desired compound is added in a final concentration of 1% DMSO with control being vehicle of DMSO alone. MET is diluted to the optimized concentration (optimized on a lot-by-lot basis) in an enzyme diluent buffer (50 mM Tris pH=7.4, 1% glycerol, 0.03% Brij35, 0.24 mM EGTA, 1 mM DTT, and 0.003% BSA). Enzyme is added to initiate the reaction and incubated for 60 min at RT. In subdued light, appropriate amount of PT66 donor and acceptor beads (diluted 1:260 from manufacturer's provision in a 25 mM Tris HCl (pH=7.5), 400 mM NaCl, 100 mM EDTA, 0.3% BSA buffer) are added to the wells. The plates, incubated for 1 h, are read on an AlphaQuest plate reader
# Chain of MET (human) (P08581 25-1390): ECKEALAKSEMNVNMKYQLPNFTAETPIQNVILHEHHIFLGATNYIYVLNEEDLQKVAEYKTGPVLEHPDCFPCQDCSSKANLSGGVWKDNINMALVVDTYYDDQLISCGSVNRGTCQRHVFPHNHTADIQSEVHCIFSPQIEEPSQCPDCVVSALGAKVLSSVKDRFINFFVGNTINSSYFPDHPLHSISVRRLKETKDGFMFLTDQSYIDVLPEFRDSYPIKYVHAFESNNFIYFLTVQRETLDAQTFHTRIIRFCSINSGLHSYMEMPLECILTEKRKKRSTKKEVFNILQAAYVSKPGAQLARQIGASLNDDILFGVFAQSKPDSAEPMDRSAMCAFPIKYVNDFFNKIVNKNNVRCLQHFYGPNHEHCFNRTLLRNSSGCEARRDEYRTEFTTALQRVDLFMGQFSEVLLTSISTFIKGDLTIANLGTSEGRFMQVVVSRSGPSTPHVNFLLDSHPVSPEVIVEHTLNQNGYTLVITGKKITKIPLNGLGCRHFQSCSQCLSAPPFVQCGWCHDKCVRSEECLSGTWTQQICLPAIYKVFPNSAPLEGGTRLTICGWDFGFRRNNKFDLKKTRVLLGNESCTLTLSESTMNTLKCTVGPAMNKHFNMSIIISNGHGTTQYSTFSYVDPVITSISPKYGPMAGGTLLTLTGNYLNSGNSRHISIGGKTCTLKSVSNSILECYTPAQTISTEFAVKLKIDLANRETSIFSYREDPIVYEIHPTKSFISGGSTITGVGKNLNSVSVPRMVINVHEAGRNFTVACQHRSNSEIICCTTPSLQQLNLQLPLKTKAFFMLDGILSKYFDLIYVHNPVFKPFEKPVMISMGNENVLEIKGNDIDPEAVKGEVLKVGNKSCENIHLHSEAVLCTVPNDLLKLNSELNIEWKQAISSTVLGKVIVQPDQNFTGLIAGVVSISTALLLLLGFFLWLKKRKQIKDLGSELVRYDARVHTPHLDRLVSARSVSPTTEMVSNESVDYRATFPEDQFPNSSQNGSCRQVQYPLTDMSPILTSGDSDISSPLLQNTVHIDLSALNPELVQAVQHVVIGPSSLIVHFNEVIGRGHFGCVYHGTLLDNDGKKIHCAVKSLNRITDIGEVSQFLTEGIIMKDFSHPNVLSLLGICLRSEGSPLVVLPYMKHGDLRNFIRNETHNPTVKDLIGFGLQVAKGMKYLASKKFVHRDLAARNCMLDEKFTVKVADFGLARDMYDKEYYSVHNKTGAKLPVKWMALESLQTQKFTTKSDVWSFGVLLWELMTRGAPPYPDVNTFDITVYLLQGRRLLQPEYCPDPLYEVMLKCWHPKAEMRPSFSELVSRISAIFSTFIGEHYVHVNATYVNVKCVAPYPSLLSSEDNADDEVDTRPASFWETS
# Chain of RON (human) (Q04912 25-1400): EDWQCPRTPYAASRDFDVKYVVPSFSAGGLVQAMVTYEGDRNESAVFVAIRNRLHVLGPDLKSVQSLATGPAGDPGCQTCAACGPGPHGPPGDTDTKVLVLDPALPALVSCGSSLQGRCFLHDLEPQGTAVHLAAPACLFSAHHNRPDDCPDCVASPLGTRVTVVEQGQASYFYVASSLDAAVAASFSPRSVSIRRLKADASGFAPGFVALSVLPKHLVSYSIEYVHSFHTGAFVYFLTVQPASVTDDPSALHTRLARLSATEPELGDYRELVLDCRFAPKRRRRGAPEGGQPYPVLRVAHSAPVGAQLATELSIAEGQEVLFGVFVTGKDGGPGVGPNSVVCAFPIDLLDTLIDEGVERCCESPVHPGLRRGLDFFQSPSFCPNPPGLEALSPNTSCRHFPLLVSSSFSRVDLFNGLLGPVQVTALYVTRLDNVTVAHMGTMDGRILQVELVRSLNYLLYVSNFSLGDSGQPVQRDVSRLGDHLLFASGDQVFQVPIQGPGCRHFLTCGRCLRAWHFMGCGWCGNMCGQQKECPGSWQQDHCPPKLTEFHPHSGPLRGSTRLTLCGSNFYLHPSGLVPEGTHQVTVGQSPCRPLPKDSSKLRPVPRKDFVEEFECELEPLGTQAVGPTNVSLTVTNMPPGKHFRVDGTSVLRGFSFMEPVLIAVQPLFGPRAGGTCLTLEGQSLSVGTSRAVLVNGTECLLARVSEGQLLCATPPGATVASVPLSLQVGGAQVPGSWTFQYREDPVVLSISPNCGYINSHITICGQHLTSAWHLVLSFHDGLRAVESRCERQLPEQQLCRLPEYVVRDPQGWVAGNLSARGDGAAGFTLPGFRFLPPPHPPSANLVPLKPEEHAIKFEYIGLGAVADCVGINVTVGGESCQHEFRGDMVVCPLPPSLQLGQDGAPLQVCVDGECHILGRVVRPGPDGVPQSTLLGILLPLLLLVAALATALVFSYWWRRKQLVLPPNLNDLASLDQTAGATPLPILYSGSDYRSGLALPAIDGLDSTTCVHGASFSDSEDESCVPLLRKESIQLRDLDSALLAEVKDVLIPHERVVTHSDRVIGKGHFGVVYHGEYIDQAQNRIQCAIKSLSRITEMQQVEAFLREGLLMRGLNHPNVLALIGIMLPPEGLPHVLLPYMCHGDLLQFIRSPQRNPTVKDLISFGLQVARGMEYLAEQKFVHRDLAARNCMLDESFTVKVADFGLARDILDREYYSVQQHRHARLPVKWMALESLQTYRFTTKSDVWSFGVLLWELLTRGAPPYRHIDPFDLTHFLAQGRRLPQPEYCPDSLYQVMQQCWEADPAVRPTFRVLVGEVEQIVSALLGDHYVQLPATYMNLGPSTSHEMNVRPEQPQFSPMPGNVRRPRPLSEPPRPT
SMILES,pIC50 (RON (human)),pIC50 (MET (human))
"C[C@@H](Oc1c(N)ncc2c(-c3csc(C(=O)N(C)C)c3)coc12)c1c(Cl)ccc(F)c1Cl [Example 317, 4-{6-Amino-7-[(R)-1-(2,6-dichloro-3-fluorophenyl)ethoxy]furo[3,2-c]pyridin-3-yl}thiophene-2-carboxylic acid Dimethylamide]",5.30 to 6.30,5.30 to 6.30
"C[C@@H](Oc1c(N)ncc2c(C(N)=O)coc12)c1c(Cl)ccc(F)c1Cl [Example 180, 6-Amino-7-[(R)-1-(2,6-dichloro-3-fluorophenyl)ethoxy]furo[3,2-c]pyridine-3-carboxamide]",4.70 to 5.30,5.30 to 6.30
C[C@@H]1CN[C@@H](C)CN1C(=O)c1ccc(-c2coc3c(O[C@H](C)c4c(Cl)ccc(F)c4Cl)c(N)ncc23)cc1 [Example 295],5.30 to 6.30,5.30 to 6.30
"C[C@@H](Oc1c(N)ncc2c(C3=CCN(C(C)(C)C)CC3)coc12)c1c(Cl)ccc(F)c1Cl [Example 163, 3-(1-tert-Butyl-1,2,3,6-tetrahydropyridin-4-yl)-7-[(1R)-1-(2,6-dichloro-3-fluorophenyl)ethoxy]furo[3,2-c]pyridin-6-amine]",> 6.30,> 6.30
"CC(Oc1c(N)ncc2c(-c3cnn(C4CCNCC4)c3)coc12)c1cccc(Cl)c1 (stereo not drawn) [Example 385, 7-[1-(3-Chlorophenyl)ethoxy]-3-(1-piperidin-4-yl-1H-pyrazol-4-yl)furo[3,2-c]pyridin-6-ylamine]",5.30 to 6.30,> 6.30
"C[C@@H](Oc1c(N)ncc2c(-c3csc(C=O)c3)coc12)c1c(Cl)ccc(F)c1Cl [Example 302, 4-{6-Amino-7-[(R)-1-(2,6-dichloro-3-fluorophenyl)ethoxy]furo[3,2-c]pyridin-3-yl}thiophene-2-carbaldehyde]",5.30 to 6.30,5.30 to 6.30
"C[C@@H](Oc1c(N)ncc2c(C3=CCSCC3)coc12)c1c(Cl)ccc(F)c1Cl [Example 139, 7-[(R)-1-(2,6-Dichloro-3-fluorophenyl)-ethoxy]-3-(3,6-dihydro-2H-thiopyran-4-yl)-furo[3,2-c]pyridin-6-ylamine]",5.30 to 6.30,> 6.30
"C[C@@H](Oc1c(N)ncc2c(C(=O)NCC3CCN(C)CC3)coc12)c1c(Cl)ccc(F)c1Cl [Example 185, 6-Amino-7-[(R)-1-(2,6-dichloro-3-fluorophenyl)ethoxy]furo[3,2-c]pyridine-3-carboxylic acid (1-methylpiperidin-4-ylmethyl)amide]",5.30 to 6.30,> 6.30
"CC(Oc1c(N)ncc2c(-c3cnn(C4CCNCC4)c3)coc12)c1ccccc1F (stereo not drawn) [Example 374, 7-[1-(2-Fluorophenyl)ethoxy]-3-(1-piperidin-4-yl-1H-pyrazol-4-yl)furo[3,2-c]pyridin-6-ylamine]",5.30 to 6.30,5.30 to 6.30
"Cn1c(Cc2ccccc2)ncc(-c2ccc(COc3c(N)ncc4ccoc34)c(F)c2)c1=O [Example 468, 5-[4-(6-Aminofuro[3,2-c]pyridin-7-yloxymethyl)-3-fluorophenyl]-2-benzyl-3-methyl-3H-pyrimidin-4-one]",4.70 to 5.30,4.70 to 5.30
"C[C@@H](Oc1c(N)ncc2c(C3=CCN(C(=O)[C@H](O)c4ccccc4)CC3)coc12)c1c(Cl)ccc(F)c1Cl [Example 266, (2R)-1-[4-{6-Amino-7-[(1R)-1-(2,6-dichloro-3-fluorophenyl)ethoxy]furo[3,2-c]pyridin-3-yl}-3,6-dihydropyridin-1(2H)-yl]-2-hydroxy-2-phenylethanone]",5.30 to 6.30,5.30 to 6.30
"C[C@@H](Oc1c(N)ncc2c(-c3cccc(NS(=O)(=O)c4cccs4)c3)coc12)c1c(Cl)ccc(F)c1Cl [Example 247, Thiophene-2-sulfonic acid (3-{6-amino-7-[(R)-1-(2,6-dichloro-3-fluorophenyl)-ethoxy]-furo[3,2-c]pyridin-3-yl}phenyl)amide]",4.70 to 5.30,5.30 to 6.30

# The remaining lines, values ahead:
pIC50 (RON (human)),pIC50 (MET (human)),SMILES
5.30 to 6.30,> 6.30,"C[C@@H](Oc1c(N)ncc2c(-c3cccc(S(C)(=O)=O)c3)coc12)c1c(Cl)ccc(F)c1Cl [Example 67, 7-[(R)-1-(2,6-Dichloro-3-fluor-phenyl)ethoxy]-3-(3-methane-sulfonylphenyl)-furo[3,2-c]pyridin-6-ylamine]"
> 6.30,> 6.30,"C[C@@H](Oc1c(N)ncc2c(C3=CCN(C(=O)CN4CCCC4)CC3)coc12)c1c(Cl)ccc(F)c1Cl [Example 13, 1-(4-{6-Amino-7-[(R)-1-(2,6-dichloro-3-fluorophenyl)-ethoxy]-furo[3,2-c]pyridin-3-yl}-3,6-dihydro-2H-pyridin-1-yl)-2-pyrrolidin-1-ylethanone]"
5.30 to 6.30,5.30 to 6.30,"CC(Oc1c(N)ncc2c(-c3cnn(C4CCNCC4)c3)coc12)c1c(Cl)ccc2ccccc12 (stereo not drawn) [Example 369, 7-[1-(2-Chloronaphthalen-1-yl)ethoxy]-3-(1-piperidin-4-yl-1H-pyrazol-4-yl)furo[3,2-c]pyridin-6-ylamine]"
5.30 to 6.30,> 6.30,"Cc1cccc(Cl)c1C(C)Oc1c(N)ncc2c(-c3cnn(C4CCNCC4)c3)coc12 (stereo not drawn) [Example 375, 7-[1-(2-Chloro-6-methylphenyl)ethoxy]-3-(1-piperidin-4-yl-1H-pyrazol-4-yl)furo[3,2-c]pyridin-6-ylamine]"
> 6.30,> 6.30,"CCN1CC2CC1CN2C(=O)N1CC=C(c2coc3c(O[C@H](C)c4c(Cl)ccc(F)c4Cl)c(N)ncc23)CC1 (stereo partly drawn) [Example 222, (4-{6-Amino-7-[(R)-1-(2,6-dichloro-3-fluorophenyl)ethoxy]-furo[3,2-c]pyridin-3-yl}-3,6-dihydro-2H-pyridin-1-yl)-(5-ethyl-2,5-diazabicyclo[2.2.1]hept-2-yl)-methanone]"
5.30 to 6.30,> 6.30,"C[C@@H](Oc1c(N)ncc2c(-c3ccc(C(=O)O)s3)coc12)c1c(Cl)ccc(F)c1Cl [Example 206, 5-{6-Amino-7-[(R)-1-(2,6-dichloro-3-fluorophenyl)ethoxy]-furo[3,2-c]pyridin-3-yl}-thiophene-2-carboxylic acid]"
5.30 to 6.30,> 6.30,"C[C@@H](Oc1c(N)ncc2c(-c3ccc(CN(C)C)cc3)coc12)c1c(Cl)ccc(F)c1Cl [Example 105, 7-[(R)-1-(2,6-Dichloro-3-fluorophenyl)ethoxy]-3-(4-dimethylaminomethylphenyl)-furo[3,2-c]pyridin-6-ylamine]"
5.30 to 6.30,5.30 to 6.30,"CC(=O)Nc1ccc(-c2coc3c(O[C@H](C)c4c(Cl)ccc(F)c4Cl)c(N)ncc23)cn1 [Example 120, N-(5-{6-Amino-7-[(R)-1-(2,6-dichloro-3-fluorophenyl)ethoxy]furo[3,2-c]pyridin-3-yl}pyridin-2-yl)acetamide]"
> 6.30,> 6.30,"C[C@@H](Oc1c(N)ncc2c(-c3ccc(N4CCN(C)CC4)cc3)coc12)c1c(Cl)ccc(F)c1Cl [Example 86, 7-[(R)-1-(2,6-Dichloro-3-fluor-phenyl)ethoxy]-3-[4-(4-methylpiperazin-1-yl)-phenyl]furo[3,2-c]pyridin-6-ylamine]"
> 6.30,> 6.30,"C[C@@H](Oc1c(N)ncc2c(C3=CCN(C=O)CC3)coc12)c1c(Cl)ccc(F)c1Cl [Example 10, 4-{6-Amino-7-[(R)-1-(2,6-dichloro-3-fluorophenyl)-ethoxy]-furo[3,2-c]pyridin-3-yl}-3,6-dihydro-2H-pyridine-1-carbaldehyde]"
> 6.30,5.30 to 6.30,"CC(C)[C@H](O)C(=O)N1CC=C(c2coc3c(O[C@H](C)c4c(Cl)ccc(F)c4Cl)c(N)ncc23)CC1 [Example 267, (2S)-1-[4-{6-Amino-7-[(1R)-1-(2,6-dichloro-3-fluorophenyl)ethoxy]furo[3,2-c]pyridin-3-yl}-3,6-dihydropyridin-1(2H)-yl]-2-hydroxy-3-methylbutan-1-one]"
> 6.30,> 6.30,"C[C@@H](Oc1c(N)ncc2c(-c3cnn(C4CCNCC4)c3)c(C#CCCO)oc12)c1c(Cl)ccc(F)c1Cl [Example 172, 4-[6-Amino-7-[(R)-1-(2,6-dichloro-3-fluorophenyl)ethoxy]-3-(1-piperidin-4-yl-1H-pyrazol-4-yl)-furo[3,2-c]pyridin-2-yl]-but-3-yn-1-ol]"
> 6.30,> 6.30,"C[C@@H](Oc1c(N)ncc2c(-c3cccc(C(=O)NCCN(C)C)c3)coc12)c1c(Cl)ccc(F)c1Cl [Example 74, 3-{6-Amino-7-[(R)-1-(2,6-dichloro-3-fluorophenyl)ethoxy]-furo[3,2-c]pyridin-3-yl}-N-(2-dimethylaminoethyl)benzamide]"
> 6.30,> 6.30,"C[C@@H](Oc1c(N)ncc2c(-c3csc(CN4CCC4)c3)coc12)c1c(Cl)ccc(F)c1Cl [Example 309, 3-(5-Azetidin-1-ylmethylthiophen-3-yl)-7-[(R)-1-(2,6-dichloro-3-fluorophenyl)ethoxy]furo[3,2-c]pyridin-6-ylamine]"
> 6.30,> 6.30,"C[C@@H](Oc1c(N)ncc2c(-c3csc(CN4CCCC4)c3)coc12)c1c(Cl)ccc(F)c1Cl [Example 308, 7-[(R)-1-(2,6-Dichloro-3-fluorophenyl)ethoxy]-3-(5-pyrrolidin-1-ylmethylthiophen-3-yl)furo[3,2-c]pyridin-6-ylamine]"
